{"source": "patent US20240059652A1", "about": "“AMORPHOUS MELANOCORTIN RECEPTOR AGONIST AND METHOD FOR PREPARING SAME” (LG CHEM, LTD., priority 2020, published 2024)", "format_in_all_cases": "physicochemical", "key": {"[1]": {"experiment": "humidity stress experiment (stability of the amorphous compound in relative humidity chambers, XRD pattern analysed)", "conditions": "5-7 days", "description": "(§1) The following experiments were performed to evaluate the stability of the amorphous compound under various solvent vapours and controlled humidity conditions.\nIn addition, a humidity stress experiment was performed by placing about 25 mg of the amorphous compound of Example 1 in individual vials, storing the vials in an unsealed state in various relative humidity chambers (23% RH, 59% RH, 7% RH, 98% RH, 40° C./75% RH) for 5-7 days, and analyzing the XRD pattern.\n(§2) The vapour stress and humidity stress experimental methods are methods used as methods for generating stable solvates or hydrates because, when a substance is exposed to vapours, a solid is plasticized, and molecular mobility is […]. However, for the amorphous compound of Example 1, the amorphous compound was maintained under various conditions according to the above experimental methods. Thus, it was confirmed that the amorphous compound was stable under the corresponding conditions."}, "[2]": {"experiment": "vapour stress experiment (stability of the amorphous compound under solvent vapours, XRD pattern analysed)", "conditions": "5-7 days; for Result / XRD: vapour stress", "description": "as §1\nA vapour stress experiment was performed by placing about 25 mg of the amorphous compound of Example 1 into an unsealed vial, placing the vial in a large sealed container containing 1 mL of the selected solvent, and after 5-7 days, analyzing the XRD pattern of the sample.\nas §2"}, "[3]": {"experiment": "humidity stress experiment (stability of the amorphous compound in relative humidity chambers, XRD pattern analysed)", "conditions": "75% RH stress, 5-7 days"}}}
{"smiles": "CC(C)C(=O)N([C@H]1C[C@@H](C(=O)N2CCOCC2)N(C(=O)[C@@H]2CN(C(C)(C)C)C[C@H]2c2ccc(Cl)cc2)C1)[C@H]1CC[C@@H](C)CC1", "note": "[Example 1, N-((3S,5S)-1-((3S,4R)-1-(tert-butyl)-4-(4-chlorophenyl)pyrrolidine-3-carbonyl)-5-(morpholine-4-carbonyl)pyrrolidin-3-yl)-N-((1s,4R)-4-methylcyclohexyl)isobutyramide]", "values": [{"measurement": "Result", "setting": "[1]; 23% RH stress", "result": "Solid"}, {"measurement": "XRD", "setting": "[1]; 23% RH stress", "result": "Amorphous"}, {"measurement": "Result", "setting": "[1]; 40° C./75% RH stress", "result": "Solid"}, {"measurement": "XRD", "setting": "[1]; 40° C./75% RH stress", "result": "Amorphous"}, {"measurement": "Result", "setting": "[1]; 59% RH stress", "result": "Solid"}, {"measurement": "XRD", "setting": "[1]; 59% RH stress", "result": "Amorphous"}, {"measurement": "Result", "setting": "[1]; 75% RH stress", "result": "Solid"}, {"measurement": "Result", "setting": "[1]; 98% RH stress", "result": "Solid"}, {"measurement": "XRD", "setting": "[1]; 98% RH stress", "result": "Amorphous"}, {"measurement": "stability of the amorphous compound under humidity stress conditions", "setting": "[1]; controlled humidity conditions", "result": "stable"}, {"measurement": "Result", "setting": "[2]; 2-Me-THF", "result": "Solid"}, {"measurement": "XRD", "setting": "[2]; 2-Me-THF", "result": "Amorphous"}, {"measurement": "Result", "setting": "[2]; ACS", "result": "Solid"}, {"measurement": "XRD", "setting": "[2]; ACS", "result": "Amorphous"}, {"measurement": "Result", "setting": "[2]; Acetone", "result": "Solid"}, {"measurement": "XRD", "setting": "[2]; Acetone", "result": "Amorphous"}, {"measurement": "Result", "setting": "[2]; Benzyl alcohol", "result": "Solid"}, {"measurement": "XRD", "setting": "[2]; Benzyl alcohol", "result": "Amorphous"}, {"measurement": "Result", "setting": "[2]; Chlorobenzene", "result": "Solid"}, {"measurement": "XRD", "setting": "[2]; Chlorobenzene", "result": "Amorphous"}, {"measurement": "Result", "setting": "[2]; Chloroform", "result": "Solid"}, {"measurement": "XRD", "setting": "[2]; Chloroform", "result": "Amorphous"}, {"measurement": "Result", "setting": "[2]; DCM", "result": "Solid"}, {"measurement": "XRD", "setting": "[2]; DCM", "result": "Amorphous"}, {"measurement": "Result", "setting": "[2]; DME", "result": "Solid"}, {"measurement": "XRD", "setting": "[2]; DME", "result": "Amorphous"}, {"measurement": "Result", "setting": "[2]; DMSO", "result": "Solid"}, {"measurement": "XRD", "setting": "[2]; DMSO", "result": "Amorphous"}, {"measurement": "Result", "setting": "[2]; Ethanol", "result": "Solid"}, {"measurement": "XRD", "setting": "[2]; Ethanol", "result": "Amorphous"}, {"measurement": "Result", "setting": "[2]; Formamide", "result": "Solid"}, {"measurement": "XRD", "setting": "[2]; Formamide", "result": "Amorphous"}, {"measurement": "Result", "setting": "[2]; HFIPA", "result": "Solid"}, {"measurement": "XRD", "setting": "[2]; HFIPA", "result": "Amorphous"}, {"measurement": "Result", "setting": "[2]; Heptane", "result": "Solid"}, {"measurement": "XRD", "setting": "[2]; Heptane", "result": "Amorphous"}, {"measurement": "Result", "setting": "[2]; IPA", "result": "Solid"}, {"measurement": "XRD", "setting": "[2]; IPA", "result": "Amorphous"}, {"measurement": "Result", "setting": "[2]; MEK", "result": "Solid"}, {"measurement": "XRD", "setting": "[2]; MEK", "result": "Amorphous"}, {"measurement": "Result", "setting": "[2]; MeOH", "result": "Solid"}, {"measurement": "XRD", "setting": "[2]; MeOH", "result": "Amorphous"}, {"measurement": "Result", "setting": "[2]; NMP", "result": "Solid"}, {"measurement": "XRD", "setting": "[2]; NMP", "result": "Amorphous"}, {"measurement": "Result", "setting": "[2]; Nitromethane", "result": "Solid"}, {"measurement": "XRD", "setting": "[2]; Nitromethane", "result": "Amorphous"}, {"measurement": "Result", "setting": "[2]; Pyridine", "result": "Solid"}, {"measurement": "XRD", "setting": "[2]; Pyridine", "result": "Amorphous"}, {"measurement": "Result", "setting": "[2]; THE", "result": "Solid"}, {"measurement": "XRD", "setting": "[2]; THE", "result": "Amorphous"}, {"measurement": "Result", "setting": "[2]; Water", "result": "Solid"}, {"measurement": "XRD", "setting": "[2]; Water", "result": "Amorphous"}, {"measurement": "stability of the amorphous compound under vapour stress conditions", "setting": "[2]; various solvent vapours", "result": "stable"}, {"measurement": "XRD", "setting": "[3]", "result": "Amorphous"}]}
